The test system of series [1] is Acinetobacter calcoaceticus 8193. The series can be described thus: MIC against Gram-negative bacteria. The class given is cell-based. The source says: (§1) Bacteria included the Bort strain of E. coli (Bortolussi, et al., Inf. Immun., 25:293, 1979) that was originally derived from a case of neonatal meningitis, and which is therefore considered a relevant pathogenic strain to study, and the 0111:B4 strain of E. coli (kindly provided by Dr. D. Morrison) which is a standard source of endotoxin. (Kelly, et al., Inf. Immun., 59:4491, 1991). In addition, P. aeruginosa PA01 strain H103, P. aeruginosa M2, P. aeruginosa K799, Eschericha coli UB 1005, Enterobacter cloacae 218S, Salmonella typhimurium MS7953s, Klebsiella pneumoniae ATCC 13883, Xanthomonas maltophilia ATCC 13637, and Acinetobacter calcoacetious 8193 were employed. LPS was obtained from E. coli Bort by the technique of Westphal and Jann, (Westphal, et al., Acad. Press, Inc. NY., 5:83) and from P. aeruginosa H103 by the method of Darveau and Hancock, (Darveau, et al., J. Bacteriol, 155:831, […]). E. coli 0111:B4 LPS was purchased from Sigma.

Series [2] relates to Klebsiella pneumoniae ATCC 13883. As to the kind of experiment: MIC against Gram-negative bacteria. The series is classed as cell-based.
Excerpt: as §1

In series [3] the test system is Xanthomonas maltophilia ATCC 13637. The series can be described thus: MIC against Gram-negative bacteria. The series is classed as cell-based.
Excerpt: as §1

Series [4] concerns TNF induced by viable bacteria in RAW 264.7 cells. The series can be described thus: TNF induction in RAW 264.7 cells by intact bacteria / secreted LPS-protein complexes. As to conditions: for Unit of TNF induced / Unit of TNF induced (% of control): 20 μg of peptide. The class given is cell-based, murine. The method, then:
After an overnight incubation, the media was aspirated from all the wells. 100 μl of Lipopolysaccharide (LPS) was added at 100 ng/100 μl. CEME or CEMA was added at the desired concentration/100 μl to specified wells. […] The plates were then incubated for six hours at 37° C., 5% CO2. The supernatant was then removed from the wells and stored overnight at 4° C. For those wells in which whole bacteria were added directly to the wells, the supernatant was centrifuged in 0.2 μm filter eppendorf tubes for 5 minutes.
In intact cell induction experiments, 10^6 E. coli Bort cells induced 11,967-14,805 Units of TNF per ml in RAW cells.
To examine effects on whole bacterium induction of TNF, bacteria, grown in Luria broth overnight (approximately 1×10^8 /ml) and diluted to […] organisms per ml, and RAW 264.7 cells were each added to separate compartments of a transwell diffusion chamber, which contained a 0.2 μm membrane filter separating the two compartments. Peptides were added, when appropriate, to the bacterium-containing compartment at a final concentration of 20 μg/ml. TNF levels were measured after 6 hours of incubation at 37° C. in 5% CO2. All assays were performed three times with similar results.
(§2) TNF was measured in cell culture supernatants and mouse serum on the basis of cytoxicity for L929 fibroblast cell. […] TNF activity was expressed in units as the reciprocal of the dilution of TNF that caused 50% cytotoxicity of L929 cells, as computed using the ELISA+program (Meddata, Inc., New York, N.Y.). In our hands one unit of TNF corresponded to 62.5 pg/ml of recombinant murine TNF (Genzyme Corp.).
In man and animal infections, LPS is probably not released as a purified molecule, but rather in association with other bacterial cell components. To mimic this situation, a model system was employed in which the LPS-protein complexes that are naturally released from bacteria were used as a stimulus to induce TNF production in RAW 264.7 cells. Viable cells of E. coli Bort and 0111:B4 or P. aeruginosa H103 were incubated in a transwell filter unit in which a 0.2 μm membrane filter separated the intact bacteria from the compartment containing the RAW 264.7 cells. […] Addition of 20 μg/ml of peptide to 10^5, 10^6, and 10^7 viable to E. coli 0111:B4 (Table 11) and Bort cells reduced the TNF levels by 90%-96%.

The test system of series [5] is LPS-induced circulating TNF. The series can be described thus: Circulating TNF response to LPS in galactosamine-sensitized mice. The class given is in vivo. As to the method: With a challenge dose of 10 μg or E. coli 0111:B4 LPS, 100% of control mice (i.e., no cationic peptide) were killed. […] Consistent with its improved ability to bind LPS, CEMA was more protective resulting in 60%, 75%, and 78% survival when given to mice at doses of 50 μg, 100 μg, and 200 μg respectively. […] Thirty minutes later, the mice were sacrificed and the blood was taken and centrifuged to separate the serum which was used in the cell cytotoxic L929 assay. […] Such suppression of TNF levels in the animals injected with Dgal, CEMA, and LPS was maintained for up to 2 hours.
as §2
Mice are naturally resistant to LPS. […] Endotoxic shock was induced by intraperitoneal injection of 10 or 20 μg of E. coli 0111:B4 LPS in phosphate-buffered saline (PBS), pH 7.2 into galactosamine-sensitized 8-10 week old female CD-1 mice (Galanos, C., supra; Freudenberg, M. A., Inf. Immun., 51:891, 1986). In experiments involving peptides, 50-200 μg in 100 μl sterile water injected at separate intraperitoneal sites immediately before or after LPS injection. In survival experiments, survival was monitored at 24 to 48 hours post injection. In experiments measuring TNF, blood was withdrawn by cardiac puncture at timed intervals up to 8 hours after the injections and allowed to clot prior to measurement of TNF in the serum.
To examine if the peptides were exerting their effects in animals by suppressing TNF induction, TNF was followed in response to injection of 10 μg of E. Coli 0111:B4 into galactosamine treated CD-1 mice. […] At the time points shown, blood was taken and TNF measured in the L929 cytotoxicity assay. […]

Series [6] can be described thus: Lethality of peptide alone in mice. The class given is in vivo.
[7] abbreviates: 10^5 viable E. coli 0111:B4 cells.
[8] abbreviates: 10^6 viable E. coli 0111:B4 cells.
[9] abbreviates: 10^7 viable E. coli 0111:B4 cells.

Structures are written as SMILES. In brackets after ≈: the same amount, converted by molar mass. Several values for one entry are separate records, joined by “and”; a condition that tells them apart may be missing. Identical values can stand only once.

Data on one molecule can be found in US5688767A, “Treatment of endotoxin-associated disorders with cationic peptides” (priority 1996, dated 1997).

As to `CC[C@H](C)[C@H](NC(=O)CNC(=O)[C@@H](NC(=O)[C@H](CCCCN)NC(=O)[C@H](CCCCN)NC(=O)[C@H](Cc1ccccc1)NC(=O)[C@H](CC(C)C)NC(=O)[C@H](CCCCN)NC(=O)[C@H](Cc1c[nH]c2ccccc12)NC(=O)[C@@H](N)CCCCN)[C@@H](C)CC)C(=O)NCC(=O)N[C@@H](C)C(=O)N[C@H](C(=O)N[C@@H](CC(C)C)C(=O)N[C@@H](CCCCN)C(=O)N[C@H](C(=O)N[C@@H](CC(C)C)C(=O)N[C@H](C(=O)N[C@H](C(=O)NCC(=O)N[C@@H](CC(C)C)C(=O)N1CCC[C@H]1C(=O)N[C@@H](C)C(=O)N[C@@H](CC(C)C)C(=O)N[C@@H](CCCCN)C(=O)N[C@@H](CC(C)C)C(=O)N[C@H](C(=O)N[C@@H](CCCCN)C(=O)O)[C@@H](C)O)[C@@H](C)O)[C@@H](C)O)C(C)C)C(C)C` [CEMA], the MIC in series [1] was 1 µg/mL (≈ 0.326 µM); in series [2], 12 µg/mL (≈ 3.91 µM); in series [3] it was 12 µg/mL (≈ 3.91 µM). For the same molecule, the “reduction in TNF levels” value in series [4] (20 μg of CEMA, 10^6 E. coli Bort cells, two independent experiments) was 96% and 97%. The “reduction of TNF induction” value in series [4] (20 μg/ml CEMA, 10^6 viable P. aeruginosa) turned out to be 96%. The figures for the “Unit of TNF induced” value in series [4] (setting [7]), in series [4] (setting [8]) and in series [4] (setting [9]) were 552 ± 61 units/ml, 1892 ± 1370 units/ml and 4126 ± 3890 units/ml, respectively. The results for the “Unit of TNF induced (% of control)” value in series [4] (setting [7]), in series [4] (setting [8]) and in series [4] (setting [9]) were 4.5%, 6.0% and 8.5%, respectively. In series [5] (200 μg CEMA injected immediately after 10 μg E. coli 0111:B4 LPS), the “reduction of serum TNF levels” value amounted to 89%. Moreover, in series [5] (200 μg CEMA with 10 μg LPS and Dgal, at 30 minutes), the “blood levels of TNF” value is listed as 11-16 U/ml. Besides, the “duration of suppression of TNF levels” value in series [5] (animals injected with Dgal, CEMA, and LPS) is on record as “up to 2 hours”. Besides, the “survival of mice given peptide alone” value in series [6] (200 μg (8.7 mg/kg) alone) is listed as “survived”. The “% Mortality” value in series [6] (no LPS, peptide 200 ug) is given as 0%. For the same molecule, the dead/total in series [6] (no LPS, peptide 200 ug) is listed as 0/5.
